In patent US5395609A, “Synthetic peptides for use in tumor detection” (Antisoma Limited, priority 1989, dated 1995):
No end group written: not given here.

Test system: metastatic lesions of pelvic melanoma
Experiment: Imaging of metastatic lesions in a human patient with pelvic melanoma after intravenous radiolabelled peptide
Type: in vivo
Procedure: 100 micrograms of the peptide […] labelled with technetium were administered intravenously as one single dose to a human patient with a pelvic melanoma which has metastrasised to the liver.

RGDSCRGDSY labelled with technetium: peptide RGDSCRGDSY labelled with technetium (also: labelled with technetium)
uptake of radiolabelled peptide at metastatic lesions, early view (100 micrograms i.v. single dose, FIG. 2): various sites of uptake (arrow) which correspond to the known metastatic lesions | retention of radiolabelled peptide by metastatic lesions (100 micrograms i.v., one hour later, FIG. 3): retention of the radiolabelled peptide by the metastatic lesions
